Assays:
[1] = target: T1, Frutapin (FTP), recombinant (Artocarpus altilis, UniProt A0A2D0TC52); test: inhibition of haemagglutination of red blood cells, double serial dilution; assay type: cell-based; conditions: 37 °C, 1 h, visual read-out, carbohydrate-binding site
T1 construct: full-length FTP (450 bp clone from leaf cDNA, codon-optimised ORF), pET SUMO in E. coli BL21, His-SUMO tag cut off with ULP1

[2] = target: T1, Frutapin (FTP), recombinant; test: X-ray co-crystal structure, […] Å; conditions: co-crystallised with 100 mM glucose, glycerol removed; carbohydrate-binding site of all four monomers
[3] = target: T1, Frutapin (FTP), recombinant; test: X-ray co-crystal structure, […] Å; conditions: co-crystallised with 20 mM mannose, glycerol removed; carbohydrate-binding site of all four monomers
[4] = target: Frutapin (FTP), recombinant, mannose-binding lectin from Artocarpus incisa (breadfruit) (Artocarpus incisa (breadfruit)); test: native gel or EMSA; native gel electrophoresis of purified FTP after removal of the SUMO tag; size from a plot of Rf against log10 (MWt)

T1 sequence (A0A2D0TC52 entry or part of it): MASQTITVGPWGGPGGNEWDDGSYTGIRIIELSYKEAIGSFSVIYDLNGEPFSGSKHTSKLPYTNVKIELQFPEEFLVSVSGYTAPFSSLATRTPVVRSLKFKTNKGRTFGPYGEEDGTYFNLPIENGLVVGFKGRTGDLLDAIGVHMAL

**Q.** How did the inhibitory sugar concentration ([1]; 42.8 µg/ml FTP) turn out when `OC[C@H]1OC(O)[C@H](O)[C@@H](O)[C@@H]1O` (some centres unmarked) [glucose] was run?
**A.** 100 mM

**Q.** With `OC[C@H]1OC(O)[C@@H](O)[C@@H](O)[C@@H]1O` (some centres unmarked) [mannose] as the compound, how does the inhibitory sugar concentration ([1]; 12.4 µg/ml FTP) read?
**A.** 6.25 mM

**Q.** Which “X-ray co-crystal structure, 1.60 Å” value [2] does the source give for `OC[C@H]1O[C@H](O)[C@H](O)[C@@H](O)[C@@H]1O` [α-D-glucose] here?
**A.** FTP was also co-crystallized with mannose and glucose

**Q.** With `OC[C@H]1O[C@H](O)[C@@H](O)[C@@H](O)[C@@H]1O` [α-D-mannose] as the compound, how does the “X-ray co-crystal structure, 1.70 Å” value [3] read?
**A.** FTP was also co-crystallized with mannose and glucose

**Q.** Which stoichiometry N [4] does the source give for “Frutapin (FTP), recombinant, mannose-binding lectin from Artocarpus incisa (breadfruit) (natural protein)” here?
**A.** 4

Reference: publication PMC5520216, “Frutapin, a lectin from Artocarpus incisa (breadfruit): cloning, expression and molecular insights” (Bioscience Reports, 2017)
